In US10254297B2, “Assay for methoxetamine” (Randox Laboratories Ltd, priority 2015, dated 2019):
In brackets after ≈: the same amount, converted by molar mass.

Test system: antibody raised against Immunogen 2 (Example 9), Tracer 1
Experiment: Competitive assay (ELISA) for cross-reactivity measurement
Assay type: binding, sheep
Conditions: for CCR (competitive cross reactivity): Table 1, antibodies raised against Immunogen 2, Tracer 1, relative to methoxetamine = 100%, summarised from FIGS. 5 to 7; for Antibody binding, in words: Table 1 and FIGS. 5 to 7, antibody of the invention; for IC50 used in % CCR calculation: standard concentration giving 50% inhibition of maximal signal
[1] = FIG. 5 (antibody derived from sheep 1)

Row | SMILES | CCR (competitive cross reactivity) [%] | Antibody binding, in words | IC50 used in % CCR calculation [1] [ng/mL] | % CCR (compared to methoxetamine) (FIG. 5 (antibody derived from sheep 1), IC50 methoxetamine / IC50 analyte x 100) [%]
1 | CNC1(c2ccccc2Cl)CCCCC1=O (stereo not drawn) [Ketamine] | <5.00 | does not bind |  | 
2 | CCNC1(c2cccc(OC)c2)CCCCC1=O (stereo not drawn) [Methoxetamine, 2-(3-methoxyphenyl)-2-(ethylamino)cyclohexanone] | 100.00 | high affinity | 0.47 (≈ 1.9 nM) | 
3 | COc1cccc(C2(N)CCCCC2=O)c1 (stereo not drawn) [N-desethylmethoxetamine, 2-amino-2-(3-methoxyphenyl)cyclohexanone] | >5.00 | substantial binding | 1.96 (≈ 8.94 nM) | 24
4 | NC1(c2ccccc2Cl)CCCCC1=O (stereo not drawn) [Norketamine] | <5.00 |  |  | 
5 | c1ccc(C2(N3CCCCC3)CCCCC2)cc1 [Phencyclidine] | <5.00 | does not bind |  | 
6 | CCOC(=O)C1(c2ccccc2)CCC=CC1N(C)C (stereo not drawn) [Tilidine] | <5.00 |  |  | 
7 | COc1cccc(C2(O)CCCCC2CN(C)C)c1 (stereo not drawn) [Tramadol] | <5.00 | does not bind |  | 
